Key:
Experiment in all cases: relative viability (nuclei count vs DMSO), 5 days (fraction); higher = more cells survive
Palbociclib + Pictilisib = compound: CC(=O)c1c(C)c2cnc(Nc3ccc(N4CCNCC4)cn3)nc2n(C2CCCC2)c1=O [Palbociclib] + CS(=O)(=O)N1CCN(Cc2cc3nc(-c4cccc5[nH]ncc45)nc(N4CCOCC4)c3s2)CC1 [Pictilisib] (partner 1 µM)
In short: (§1)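 Lung cancer cell lines, seeded in 1536-well plates, were treated the following day by pin tool with a single drug or with five library-drug doses (not always all listed) in √10 steps on top of a fixed anchor-drug dose. Cells were fixed and nuclei stained in one step after 5 days, and nuclei were counted. Relative viability is the nuclei count for treated wells divided by that for vehicle wells, reported as medians of duplicate plates.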

Palbociclib + Tozasertib = compound: CC(=O)c1c(C)c2cnc(Nc3ccc(N4CCNCC4)cn3)nc2n(C2CCCC2)c1=O [Palbociclib] + Cc1cc(Nc2cc(N3CCN(C)CC3)nc(Sc3ccc(NC(=O)C4CC4)cc3)n2)n[nH]1 [Tozasertib] (partner 0.1 µM)
In short: as §1

Palbociclib + Decitabine = compound: CC(=O)c1c(C)c2cnc(Nc3ccc(N4CCNCC4)cn3)nc2n(C2CCCC2)c1=O [Palbociclib] + Nc1ncn([C@H]2C[C@H](O)[C@@H](CO)O2)c(=O)n1 [Decitabine] (partner 2 µM)
In short: as §1

Palbociclib + Pemetrexed = compound: CC(=O)c1c(C)c2cnc(Nc3ccc(N4CCNCC4)cn3)nc2n(C2CCCC2)c1=O [Palbociclib] + Nc1nc2[nH]cc(CCc3ccc(C(=O)N[C@@H](CCC(=O)O)C(=O)O)cc3)c2c(=O)[nH]1 [Pemetrexed] (partner 0.2 µM)
In short: as §1

Cell Line: HCC-827
- relative viability (Palbociclib + Pictilisib; first compound 0.01 µM): 0.859
- relative viability (Palbociclib + Pictilisib; first compound 0.03162 µM): 1.02
- relative viability (Palbociclib + Pictilisib; first compound 0.1 µM): 0.986
- relative viability (Palbociclib + Pictilisib; first compound 0.3162 µM): 0.951
- relative viability (Palbociclib + Pictilisib; first compound 1 µM): 0.746
- relative viability (Palbociclib + Tozasertib; first compound 0.01 µM): 0.424
- relative viability (Palbociclib + Tozasertib; first compound 0.03162 µM): 0.4
- relative viability (Palbociclib + Tozasertib; first compound 0.1 µM): 0.358
- relative viability (Palbociclib + Tozasertib; first compound 0.3162 µM): 0.389
- relative viability (Palbociclib + Tozasertib; first compound 1 µM): 0.366
- relative viability (Palbociclib + Decitabine; first compound 0.01 µM): 0.369
- relative viability (Palbociclib + Decitabine; first compound 0.03162 µM): 0.294
- relative viability (Palbociclib + Decitabine; first compound 0.1 µM): 0.289
- relative viability (Palbociclib + Decitabine; first compound 0.3162 µM): 0.314
- relative viability (Palbociclib + Decitabine; first compound 1 µM): 0.265
- relative viability (Palbociclib + Pemetrexed; first compound 0.01 µM): 0.228
- relative viability (Palbociclib + Pemetrexed; first compound 0.03162 µM): 0.251
- relative viability (Palbociclib + Pemetrexed; first compound 0.1 µM): 0.257
- relative viability (Palbociclib + Pemetrexed; first compound 0.3162 µM): 0.261
- relative viability (Palbociclib + Pemetrexed; first compound 1 µM): 0.243

Cell Line: HOP-62
- relative viability (Palbociclib + Pictilisib; first compound 0.01 µM): 0.775
- relative viability (Palbociclib + Pictilisib; first compound 0.1 µM): 0.516
- relative viability (Palbociclib + Pictilisib; first compound 0.3162 µM): 0.551
- relative viability (Palbociclib + Pictilisib; first compound 1 µM): 0.358
- relative viability (Palbociclib + Tozasertib; first compound 0.01 µM): 0.368
- relative viability (Palbociclib + Tozasertib; first compound 0.1 µM): 0.344
- relative viability (Palbociclib + Tozasertib; first compound 0.3162 µM): 0.347
- relative viability (Palbociclib + Tozasertib; first compound 1 µM): 0.338
- relative viability (Palbociclib + Decitabine; first compound 0.01 µM): 0.179
- relative viability (Palbociclib + Decitabine; first compound 0.1 µM): 0.237
- relative viability (Palbociclib + Decitabine; first compound 0.3162 µM): 0.207
- relative viability (Palbociclib + Decitabine; first compound 1 µM): 0.257
- relative viability (Palbociclib + Pemetrexed; first compound 0.01 µM): 0.281
- relative viability (Palbociclib + Pemetrexed; first compound 0.1 µM): 0.306
- relative viability (Palbociclib + Pemetrexed; first compound 0.3162 µM): 0.252
- relative viability (Palbociclib + Pemetrexed; first compound 1 µM): 0.269

Cell Line: LC-2-ad
- relative viability (Palbociclib + Pictilisib; first compound 0.01 µM): 0.45
- relative viability (Palbociclib + Pictilisib; first compound 0.1 µM): 0.346
- relative viability (Palbociclib + Pictilisib; first compound 0.3162 µM): 0.305
- relative viability (Palbociclib + Pictilisib; first compound 1 µM): 0.223
- relative viability (Palbociclib + Tozasertib; first compound 0.01 µM): 0.461
- relative viability (Palbociclib + Tozasertib; first compound 0.1 µM): 0.453
- relative viability (Palbociclib + Tozasertib; first compound 0.3162 µM): 0.428
- relative viability (Palbociclib + Tozasertib; first compound 1 µM): 0.439
- relative viability (Palbociclib + Decitabine; first compound 0.01 µM): 0.82
- relative viability (Palbociclib + Decitabine; first compound 0.03162 µM): 0.781
- relative viability (Palbociclib + Decitabine; first compound 0.1 µM): 0.758
- relative viability (Palbociclib + Decitabine; first compound 0.3162 µM): 0.691
- relative viability (Palbociclib + Decitabine; first compound 1 µM): 0.756
- relative viability (Palbociclib + Pemetrexed; first compound 0.01 µM): 0.271
- relative viability (Palbociclib + Pemetrexed; first compound 0.03162 µM): 0.289
- relative viability (Palbociclib + Pemetrexed; first compound 0.1 µM): 0.318
- relative viability (Palbociclib + Pemetrexed; first compound 0.3162 µM): 0.392
- relative viability (Palbociclib + Pemetrexed; first compound 1 µM): 0.363

Cell Line: LCLC-97TM1
- relative viability (Palbociclib + Pictilisib; first compound 0.01 µM): 0.199
- relative viability (Palbociclib + Pictilisib; first compound 0.1 µM): 0.122
- relative viability (Palbociclib + Pictilisib; first compound 0.3162 µM): 0.157
- relative viability (Palbociclib + Pictilisib; first compound 1 µM): 0.101
- relative viability (Palbociclib + Tozasertib; first compound 0.01 µM): 0.218
- relative viability (Palbociclib + Tozasertib; first compound 0.03162 µM): 0.206
- relative viability (Palbociclib + Tozasertib; first compound 0.1 µM): 0.202
- relative viability (Palbociclib + Tozasertib; first compound 0.3162 µM): 0.216
- relative viability (Palbociclib + Tozasertib; first compound 1 µM): 0.169
- relative viability (Palbociclib + Decitabine; first compound 0.01 µM): 0.23
- relative viability (Palbociclib + Decitabine; first compound 0.1 µM): 0.231
- relative viability (Palbociclib + Decitabine; first compound 0.3162 µM): 0.239
- relative viability (Palbociclib + Decitabine; first compound 1 µM): 0.198
- relative viability (Palbociclib + Pemetrexed; first compound 0.01 µM): 0.201
- relative viability (Palbociclib + Pemetrexed; first compound 0.1 µM): 0.168
- relative viability (Palbociclib + Pemetrexed; first compound 0.3162 µM): 0.156
- relative viability (Palbociclib + Pemetrexed; first compound 1 µM): 0.167

Cell Line: LCLC-103H
- relative viability (Palbociclib + Pictilisib; first compound 0.01 µM): 0.564
- relative viability (Palbociclib + Pictilisib; first compound 0.03162 µM): 0.536
- relative viability (Palbociclib + Pictilisib; first compound 0.1 µM): 0.543
- relative viability (Palbociclib + Pictilisib; first compound 0.3162 µM): 0.591
- relative viability (Palbociclib + Pictilisib; first compound 1 µM): 0.436
- relative viability (Palbociclib + Tozasertib; first compound 0.01 µM): 0.483
- relative viability (Palbociclib + Tozasertib; first compound 0.03162 µM): 0.385
- relative viability (Palbociclib + Tozasertib; first compound 0.1 µM): 0.559
- relative viability (Palbociclib + Tozasertib; first compound 0.3162 µM): 0.423
- relative viability (Palbociclib + Tozasertib; first compound 1 µM): 0.357
- relative viability (Palbociclib + Decitabine; first compound 0.01 µM): 0.675
- relative viability (Palbociclib + Decitabine; first compound 0.03162 µM): 0.76
- relative viability (Palbociclib + Decitabine; first compound 0.1 µM): 0.674
- relative viability (Palbociclib + Decitabine; first compound 0.3162 µM): 0.679
- relative viability (Palbociclib + Decitabine; first compound 1 µM): 0.627
- relative viability (Palbociclib + Pemetrexed; first compound 0.01 µM): 0.432
- relative viability (Palbociclib + Pemetrexed; first compound 0.03162 µM): 0.495
- relative viability (Palbociclib + Pemetrexed; first compound 0.1 µM): 0.484
- relative viability (Palbociclib + Pemetrexed; first compound 0.3162 µM): 0.443
- relative viability (Palbociclib + Pemetrexed; first compound 1 µM): 0.412

Cell Line: LK-2
- relative viability (Palbociclib + Pictilisib; first compound 0.01 µM): 0.574
- relative viability (Palbociclib + Pictilisib; first compound 0.1 µM): 0.365
- relative viability (Palbociclib + Pictilisib; first compound 0.3162 µM): 0.529
- relative viability (Palbociclib + Pictilisib; first compound 1 µM): 0.501
- relative viability (Palbociclib + Tozasertib; first compound 0.01 µM): 0.167
- relative viability (Palbociclib + Tozasertib; first compound 0.1 µM): 0.15
- relative viability (Palbociclib + Tozasertib; first compound 0.3162 µM): 0.196
- relative viability (Palbociclib + Tozasertib; first compound 1 µM): 0.167
- relative viability (Palbociclib + Decitabine; first compound 0.01 µM): 0.299
- relative viability (Palbociclib + Decitabine; first compound 0.03162 µM): 0.213
- relative viability (Palbociclib + Decitabine; first compound 0.1 µM): 0.333
- relative viability (Palbociclib + Decitabine; first compound 0.3162 µM): 0.324
- relative viability (Palbociclib + Decitabine; first compound 1 µM): 0.283
- relative viability (Palbociclib + Pemetrexed; first compound 0.01 µM): 0.283
- relative viability (Palbociclib + Pemetrexed; first compound 0.03162 µM): 0.175
- relative viability (Palbociclib + Pemetrexed; first compound 0.1 µM): 0.205
- relative viability (Palbociclib + Pemetrexed; first compound 0.3162 µM): 0.205
- relative viability (Palbociclib + Pemetrexed; first compound 1 µM): 0.238

Cell Line: LOU-NH91
- relative viability (Palbociclib + Pictilisib; first compound 0.01 µM): 0.547
- relative viability (Palbociclib + Pictilisib; first compound 0.03162 µM): 0.479
- relative viability (Palbociclib + Pictilisib; first compound 0.1 µM): 0.484
- relative viability (Palbociclib + Pictilisib; first compound 0.3162 µM): 0.465
- relative viability (Palbociclib + Pictilisib; first compound 1 µM): 0.446
- relative viability (Palbociclib + Tozasertib; first compound 0.01 µM): 0.778
- relative viability (Palbociclib + Tozasertib; first compound 0.03162 µM): 0.51
- relative viability (Palbociclib + Tozasertib; first compound 0.1 µM): 0.541
- relative viability (Palbociclib + Tozasertib; first compound 0.3162 µM): 0.575
- relative viability (Palbociclib + Tozasertib; first compound 1 µM): 0.452
- relative viability (Palbociclib + Decitabine; first compound 0.01 µM): 0.817
- relative viability (Palbociclib + Decitabine; first compound 0.03162 µM): 0.732
- relative viability (Palbociclib + Decitabine; first compound 0.1 µM): 0.693
- relative viability (Palbociclib + Decitabine; first compound 0.3162 µM): 0.631
- relative viability (Palbociclib + Decitabine; first compound 1 µM): 0.61
- relative viability (Palbociclib + Pemetrexed; first compound 0.01 µM): 0.384
- relative viability (Palbociclib + Pemetrexed; first compound 0.03162 µM): 0.396
- relative viability (Palbociclib + Pemetrexed; first compound 0.1 µM): 0.462
- relative viability (Palbociclib + Pemetrexed; first compound 0.3162 µM): 0.492
- relative viability (Palbociclib + Pemetrexed; first compound 1 µM): 0.439

Cell Line: LU99A
- relative viability (Palbociclib + Pictilisib; first compound 0.01 µM): 0.328
- relative viability (Palbociclib + Pictilisib; first compound 0.03162 µM): 0.287
- relative viability (Palbociclib + Pictilisib; first compound 0.1 µM): 0.239
- relative viability (Palbociclib + Pictilisib; first compound 0.3162 µM): 0.236
- relative viability (Palbociclib + Pictilisib; first compound 1 µM): 0.225
- relative viability (Palbociclib + Tozasertib; first compound 0.01 µM): 0.314
- relative viability (Palbociclib + Tozasertib; first compound 0.03162 µM): 0.268
- relative viability (Palbociclib + Tozasertib; first compound 0.1 µM): 0.254
- relative viability (Palbociclib + Tozasertib; first compound 0.3162 µM): 0.308
- relative viability (Palbociclib + Tozasertib; first compound 1 µM): 0.25
- relative viability (Palbociclib + Decitabine; first compound 0.01 µM): 0.926
- relative viability (Palbociclib + Decitabine; first compound 0.1 µM): 0.863
- relative viability (Palbociclib + Decitabine; first compound 0.3162 µM): 0.813
- relative viability (Palbociclib + Decitabine; first compound 1 µM): 0.684
- relative viability (Palbociclib + Pemetrexed; first compound 0.01 µM): 0.176
- relative viability (Palbociclib + Pemetrexed; first compound 0.1 µM): 0.158
- relative viability (Palbociclib + Pemetrexed; first compound 0.3162 µM): 0.171
- relative viability (Palbociclib + Pemetrexed; first compound 1 µM): 0.19

Cell Line: LXF-289
- relative viability (Palbociclib + Pictilisib; first compound 0.01 µM): 0.752
- relative viability (Palbociclib + Pictilisib; first compound 0.03162 µM): 0.807
- relative viability (Palbociclib + Pictilisib; first compound 0.1 µM): 0.642
- relative viability (Palbociclib + Pictilisib; first compound 0.3162 µM): 0.69
- relative viability (Palbociclib + Pictilisib; first compound 1 µM): 0.474
- relative viability (Palbociclib + Tozasertib; first compound 0.01 µM): 0.175
- relative viability (Palbociclib + Tozasertib; first compound 0.03162 µM): 0.2
- relative viability (Palbociclib + Tozasertib; first compound 0.1 µM): 0.19
- relative viability (Palbociclib + Tozasertib; first compound 0.3162 µM): 0.233
- relative viability (Palbociclib + Tozasertib; first compound 1 µM): 0.248
- relative viability (Palbociclib + Decitabine; first compound 0.01 µM): 0.367
- relative viability (Palbociclib + Decitabine; first compound 0.03162 µM): 0.405
- relative viability (Palbociclib + Decitabine; first compound 0.1 µM): 0.411
- relative viability (Palbociclib + Decitabine; first compound 0.3162 µM): 0.363
- relative viability (Palbociclib + Decitabine; first compound 1 µM): 0.422
- relative viability (Palbociclib + Pemetrexed; first compound 0.01 µM): 0.887
- relative viability (Palbociclib + Pemetrexed; first compound 0.03162 µM): 0.733
- relative viability (Palbociclib + Pemetrexed; first compound 0.1 µM): 0.793
- relative viability (Palbociclib + Pemetrexed; first compound 0.3162 µM): 0.793
- relative viability (Palbociclib + Pemetrexed; first compound 1 µM): 0.681
